In patent publication US20030109548A1, “Compositions and methods of treating iron excess” (priority 2001, published 2003):

Tests used:
[1] = isolated from filtrates of 4 to 6 week old culture of P. aeruginosa; cited from earlier work
[2] = Micelle formation upon mixing with FeCl3 (brightfield microscopy); type: physicochemical; conditions: 0.2 M in ethanol mixed with 0.2 M FeCl3 in ethanol, 3/1 ratio, reduced to half volume
Excerpt: Micelle formation. […] Also, synthesized pseudan IX, 0.2 M in ethanol, was mixed with 0.2 M FeCl3 in ethanol in a 3/1 ratio. Following reduction to half the volume using a nitrogen bubbler, micelles were observed as above. An Olympus BX-60 microscope and an Optronics DEI 750 camera were used.

In the case of `CCCCCCCCCc1cc(O)c2ccccc2n1` [pseudan IX, 4-hydroxy-2-nonylquinoline], the antibiotic activity [1] is given as “shown to exhibit antibiotic activity” and the “micelle formation with iron” value [2] is given as “Pink micelles, albeit smaller, are also evident”.
